Test results reported in US9206159B2, “Piperazine-piperidine compounds as hepatitis C virus inhibitors” (Theravance Biopharma R&D IP, LLC, priority 2012, dated 2015).

Tested on: HCV genotype 1a replicon cell line
Assay: HCV Genotype 1a Replicon Assay
Type: cell-based, hepatitis C virus
Conditions: Hepatitis C virus, Huh7.5 cell background, NS3-specific protease activity in lysates, 48 or 72 hours, read-out: Genotype 1a (pEC50 class) (converted)
Experimental: Assay 2: HCV Genotype 1a Replicon Assay
The HCV genotype 1a replicon cell line was obtained from Apath LLC (APC89; Huh7.5 cell background). This subgenomic replicon contains the N-terminus of the HCV core protein fused to the neomycin-resistance selectable marker. The EMCV IRES lies downstream and drives expression of the non-structural proteins NS3-NS5B. Compound potencies were determined using the NS3-specific protease activity in lysates as a measurement of compound inhibition of replicon levels.
Cells were grown at 37° C. in a 5% CO2 humidified incubator in DMEM (Invitrogen) with 10% FBS (HyClone), 1×NEAA (Invitrogen), 1× Pen-Strep (Invitrogen), and 850 μg/mL G418 (Invitrogen). On day 1 of the assay, cells were plated at 15,000 cells/well in black 96-well tissue culture plates (Costar) in 200 μL media lacking G418. Four hours later, once the cells had adhered, the media was removed and replaced with media (no G418) containing dose-responses of test compounds. Compounds were initially diluted in DMSO and then diluted another 200× in media to bring the final DMSO concentration down to 0.5%. The cells were incubated with test compounds for 48 or 72 hours. At the end of the incubation period, media and compound were removed from the plates.
To determine the NS3-specific protease activity in lysates, the cells were lysed at room temperature in 50 μL/well of 50 mM Hepes pH 7.5, 150 mM NaCl, 15% Glycerol, 0.15% Triton X-100, 10 mM DTT for 20 minutes with shaking. 50 μL of an NS3/4a protease-specific FRET substrate (Anaspec RET SI Cat#22991) was then added to the wells at a final concentration of 15 μM. The plates were incubated at 37° C. for 20 minutes, which corresponds to a timepoint at which the protease activity is still in the linear phase. Protease activity was determined by measuring fluorescence (Excitation: 340 nm; Emission: 509 nm).
To analyze the data, the fluorescence was plotted vs. the compound concentration, and EC50 values were determined from a 4-parameter robust fit model using GraphPad Prism software.

| SMILES | EC50 [nM] |
| --- | --- |
| COC(=O)N[C@H](C(=O)N1CCC[C@H]1c1nc(-c2ccc(-c3ccc(NC(=O)N4CCN(C5CCN(C(=O)C6CC6)CC5)[C@@H](C)C4)cc3OC(F)(F)F)cc2)c[nH]1)C(C)C [Example 1, ((S)-1-{(S)-2-[4-(4′-{[(S)-4-(1-Cyclopropanecarbonyl-piperidin-4-yl)-3-methyl-piperazine-1-carbonyl]-amino}-2′-trifluoromethoxy-biphenyl-4-yl)-1H-imidazol-2-yl]-pyrrolidine-1-carbonyl}-2-methyl-propyl)-carbamic acid methyl ester] | 0.1 to 1 |

Same assay, conditions: Huh7.5 cell background, NS3-specific protease activity in lysates, 48 or 72 hours

| SMILES | Genotype 1a (pEC50 class) |
| --- | --- |
| COC(=O)N[C@H](C(=O)N1CCC[C@H]1c1nc(-c2ccc(-c3ccc(NC(=O)N4CCN(C5CCN(C(=O)OCc6ccccc6)CC5)CC4)cc3)cc2)c[nH]1)C(C)C [Example 1-2] | B (B represents pEC50 between 8 and 9 (EC50 between 1 and 10 nM)) |
| COC(=O)N[C@H](C(=O)N1CCC[C@H]1c1nc(-c2ccc(-c3ccc(NC(=O)N4CCN(C5CCN(C(=O)[C@H]6CC6(C)C)CC5)CC4)cc3)cc2)c[nH]1)C(C)C [Example 1-3] | C (C represents pEC50 between and 9 and about 10, (EC50 between 1 nM and 0.1 nM)) |
| COC(=O)N[C@H](C(=O)N1CCC[C@H]1c1nc(-c2ccc(-c3ccc(NC(=O)N4CCN(C5CCN(C(=O)c6c[nH]cn6)CC5)CC4)cc3)cc2)c[nH]1)C(C)C [Example 1-5] | B (B represents pEC50 between 8 and 9 (EC50 between 1 and 10 nM)) |
| COC(=O)N[C@H](C(=O)N1CCC(N2CCN(C(=O)Nc3ccc(-c4ccc(-c5c[nH]c([C@@H]6CCCN6C(=O)[C@@H](NC(=O)OC)C(C)C)n5)cc4)cc3)CC2)CC1)C(C)C [Example 1-6] | A (A represents a pEC50 value between 6 and 8 (EC50 between 1 μM and 10 nM)) |
| CNC(=O)N1CCC(N2CCN(C(=O)Nc3ccc(-c4ccc(-c5c[nH]c([C@@H]6CCCN6C(=O)[C@@H](NC(=O)OC)C(C)C)n5)cc4)cc3)CC2)CC1 [Example 1-7] | B (B represents pEC50 between 8 and 9 (EC50 between 1 and 10 nM)) |
| COC(=O)N[C@H](C(=O)N1CCC[C@H]1c1nc(-c2ccc(-c3ccc(NC(=O)N4CCN(C5CCN(C(=O)OC)CC5)CC4)cc3)cc2)c[nH]1)C(C)C [Example 1-9] | B (B represents pEC50 between 8 and 9 (EC50 between 1 and 10 nM)) |
| COC(=O)N[C@H](C(=O)N1CCC[C@H]1c1nc(-c2ccc(-c3ccc(NC(=O)N4CCN(C5CCN(C(=O)C67CC8CC(CC(O)(C8)C6)C7)CC5)CC4)cc3OC(F)(F)F)cc2)c[nH]1)C(C)C [Example 1-10] | B (B represents pEC50 between 8 and 9 (EC50 between 1 and 10 nM)) |
| COC(=O)N[C@H](C(=O)N1CCC[C@H]1c1nc(-c2ccc(-c3ccc(NC(=O)N4CCN(C5CCN(C(=O)C6CC7CCC6C7)CC5)CC4)cc3OC(F)(F)F)cc2)c[nH]1)C(C)C (stereo partly shown) [Example 1-11] | C (C represents pEC50 between and 9 and about 10, (EC50 between 1 nM and 0.1 nM)) |
| COC(=O)N[C@H](C(=O)N1CCC[C@H]1c1nc(-c2ccc(-c3ccc(NC(=O)N4CCN(C5CCN(C(=O)C(C)NC(N)=O)CC5)CC4)cc3OC(F)(F)F)cc2)c[nH]1)C(C)C (stereo partly shown) [Example 1-15] | B (B represents pEC50 between 8 and 9 (EC50 between 1 and 10 nM)) |
| COC(=O)N[C@H](C(=O)N1CCC[C@H]1c1nc(-c2ccc(-c3ccc(NC(=O)N4CCN(C5CCN(C(=O)C6CC6)CC5)C[C@H]4C)cc3OC(F)(F)F)cc2)c[nH]1)C(C)C [Example 1-18] | C (C represents pEC50 between and 9 and about 10, (EC50 between 1 nM and 0.1 nM)) |
| COC(=O)N[C@H](C(=O)N1CCC[C@H]1c1nc(-c2ccc(-c3ccc(NC(=O)N4CCN(C5CCN(C(=O)OC(C)(C)C)CC5)C[C@H]4C)cc3OC(F)(F)F)cc2)c[nH]1)C(C)C [Example 1-19] | C (C represents pEC50 between and 9 and about 10, (EC50 between 1 nM and 0.1 nM)) |
| COC(=O)N[C@H](C(=O)N1CCC[C@H]1c1nc(-c2ccc(-c3ccc(NC(=O)N4CCN(C5CCN(C(=O)c6ncccn6)CC5)CC4)cc3OC(F)(F)F)cc2)c[nH]1)C(C)C [Example 1-21] | B (B represents pEC50 between 8 and 9 (EC50 between 1 and 10 nM)) |
| COC(=O)N[C@H](C(=O)N1CCC[C@H]1c1nc(-c2ccc(-c3ccc(NC(=O)N4CCN(C5CCN(C(=O)c6c[nH]cn6)CC5)CC4)cc3OC(F)(F)F)cc2)c[nH]1)C(C)C [Example 1-23] | C (C represents pEC50 between and 9 and about 10, (EC50 between 1 nM and 0.1 nM)) |
| CNC(=O)N1CCC(N2CCN(C(=O)Nc3ccc(-c4ccc(-c5c[nH]c([C@@H]6CCCN6C(=O)[C@@H](NC(=O)OC)C(C)C)n5)cc4)c(OC(F)(F)F)c3)CC2)CC1 [Example 1-24] | C (C represents pEC50 between and 9 and about 10, (EC50 between 1 nM and 0.1 nM)) |
| COC(=O)N[C@H](C(=O)N1CCC[C@H]1c1nc(-c2ccc(-c3cc(F)c(NC(=O)N4CCN(C5CCN(C(=O)[C@H]6CC6(C)C)CC5)CC4)cc3OC(F)(F)F)cc2)c[nH]1)C(C)C [Example 1-26] | C (C represents pEC50 between and 9 and about 10, (EC50 between 1 nM and 0.1 nM)) |
| COC(=O)N[C@H](C(=O)N1CCC[C@H]1c1nc(-c2ccc(-c3cc(F)c(NC(=O)N4CCN(C5CCN(C(=O)C6CC6)CC5)CC4)cc3OC(F)(F)F)cc2)c[nH]1)C(C)C [Example 1-28] | C (C represents pEC50 between and 9 and about 10, (EC50 between 1 nM and 0.1 nM)) |
| COC(=O)N[C@H](C(=O)N1CCC(N2CCN(C(=O)Nc3ccc(-c4ccc(-c5c[nH]c([C@@H]6CCCN6C(=O)[C@@H](NC(=O)OC)C(C)C)n5)cc4)c(OC(F)(F)F)c3)CC2)CC1)C(C)C [Example 1-29] | A (A represents a pEC50 value between 6 and 8 (EC50 between 1 μM and 10 nM)) |
| CCN(CC)[C@@H](C(=O)N1CCC(N2CCN(C(=O)Nc3ccc(-c4ccc(-c5c[nH]c([C@@H]6CCCN6C(=O)[C@@H](NC(=O)OC)C(C)C)n5)cc4)c(OC(F)(F)F)c3)CC2)CC1)C(C)C [Example 1-30] | A (A represents a pEC50 value between 6 and 8 (EC50 between 1 μM and 10 nM)) |
| CCN(CC)[C@@H](C(=O)N1CCC(N2CCN(C(=O)Nc3ccc(-c4ccc(-c5c[nH]c([C@@H]6CCCN6C(=O)[C@@H](NC(=O)OC)C(C)C)n5)cc4)c(OC(F)(F)F)c3)CC2)CC1)c1ccccc1 [Example 1-32] | A (A represents a pEC50 value between 6 and 8 (EC50 between 1 μM and 10 nM)) |
| COC(=O)N[C@H](C(=O)N1CCC[C@H]1c1nc(-c2ccc(-c3cc(Cl)c(NC(=O)N4CCN(C5CCN(C(=O)C6CC6)CC5)CC4)cc3OC(F)(F)F)cc2)c[nH]1)C(C)C [Example 1-33] | C (C represents pEC50 between and 9 and about 10, (EC50 between 1 nM and 0.1 nM)) |
| COC(=O)N[C@H](C(=O)N1CCC[C@H]1c1nc(-c2ccc(-c3cc(Cl)c(NC(=O)N4CCN(C5CCN(C(=O)[C@H]6CC6(C)C)CC5)CC4)cc3OC(F)(F)F)cc2)c[nH]1)C(C)C [Example 1-34] | C (C represents pEC50 between and 9 and about 10, (EC50 between 1 nM and 0.1 nM)) |
| COC(=O)N[C@H](C(=O)N1CCC[C@H]1c1nc(-c2ccc(-c3cc(Cl)c(NC(=O)N4CCN(C5CCN(C(=O)OC(C)(C)C)CC5)CC4)cc3OC(F)(F)F)cc2)c[nH]1)C(C)C [Example 1-36] | C (C represents pEC50 between and 9 and about 10, (EC50 between 1 nM and 0.1 nM)) |
| COC(=O)NC(C(=O)N1CCCC1c1nc(-c2ccc(-c3ccc(NC(=O)N4CCN(C5CCN(C(=O)C6CC6(C)C)CC5)C(C)C4)cc3OC(F)(F)F)cc2)c[nH]1)C(C)C (stereo not shown) [Example 1-37] | B (B represents pEC50 between 8 and 9 (EC50 between 1 and 10 nM)) |
| COC(=O)NC(C(=O)N1CCCC1c1nc(-c2ccc(-c3ccc(NC(=O)N4CCN(C5CCN(C(=O)OC(C)(C)C)CC5)C(C)C4)cc3OC(F)(F)F)cc2)c[nH]1)C(C)C (stereo not shown) [Example 1-38] | B (B represents pEC50 between 8 and 9 (EC50 between 1 and 10 nM)) |
| CNC(=O)N1CCC(N2CCN(C(=O)Nc3ccc(-c4ccc(-c5c[nH]c(C6CCCN6C(=O)C(NC(=O)OC)C(C)C)n5)cc4)c(OC(F)(F)F)c3)CC2C)CC1 (stereo not shown) [Example 1-39] | B (B represents pEC50 between 8 and 9 (EC50 between 1 and 10 nM)) |
| COC(=O)NC(C(=O)N1CCCC1c1nc(-c2ccc(-c3ccc(NC(=O)N4CCN(C5CCN(C(=O)C6CC6)CC5)C(C)C4)cc3OC(F)(F)F)cc2)c[nH]1)C(C)C (stereo not shown) [Example 1-40] | B (B represents pEC50 between 8 and 9 (EC50 between 1 and 10 nM)) |
| COC(=O)N[C@H](C(=O)N1CCC[C@H]1c1nc(-c2ccc(-c3ccc(NC(=O)N4CCN(C5CCN(C(=O)C6CC6)CC5)C[C@@H]4C)cc3OC(F)(F)F)cc2)c[nH]1)C(C)C [Example 1-41] | B (B represents pEC50 between 8 and 9 (EC50 between 1 and 10 nM)) |
